SMILES strings stand for the structures.

The assay relates to etiolated soybean seedlings. As to the kind of experiment: Soybean seedlings irradiated with low fluence UV, grown with or without phenylalanine in the growth media. Format: in vivo, soybean (Glycine max L.). The note with it: for protection from the effects of high energy UV (lack of seed development, seed death): 1 mM phenylalanine in growth media, low fluence 300, 305, 311 or 317 nm on day 3 after planting. The text has this:
Three varieties, Williams, Forrest, and Williams 82, serve as the progenitor germplasms used in many US soybean breeding programs. These germplasms were used in the experiments described in the Examples, and representative data is shown. In general soybean experiments are done using etiolated seedlings irradiated 3 days after planting or 7 days after planting, in contrast to the regime (6 days dark growth) used for Arabidopsis experiments. For the soybean experiments we have used a high intensity light source filtered through narrow band pass for a low fluence radiation dose of (10^4 μmol m^−2), with (10 nm half band width) filters of peak pass-through at 300, 305, 311, 317, 325, 332 and 368 nm. Soybean primary leaves are sensitive to UV, with the greatest damage occurring in response to irradiation with the greatest energy (smallest wavelength). Three day old etiolated wild type Williams, Forest and Williams 82 soybean seedlings of were individually irradiated with a single low fluence pulse of 300, 305, 311, 317, 325, 332, 368 nm or no light (as a control). After irradiation seedlings were maintained in a summer day-night cycle (14 hr white light: 10 hr dark) to allow for photoreactivation and other forms of light mediated repair until day 8. Irradiation with 300, 305 or 311 nm light results in a “severe” damage with a greater then 70% mortality rate by day 8 (FIGS. 9,10). Irradiation with 317 or 325 nm results in a ‘moderate’ response, with a mortality of approximately 20%. […] Seedlings irradiated with 300, 317 or 368 nm light, or no UV light (as a control) were assessed 3, 7, 14, 21 and 28 days post planting. […] The very young seedlings were able to use the phenylalanine in the growth media to supplement the limiting amounts available in the seed to produce a larger quantity of UV screening pigments, and perhaps other compounds important to UV protection, thereby protecting themselves against the UV itself and perhaps enacting enhanced repair functions after the UV irradiation. […]

Consider `N[C@@H](Cc1ccccc1)C(=O)O` [phenylalanine], for which the “protection from the effects of high energy UV (lack of seed development, seed death)” value was “able to ameliorate the most negative of the effects of high energy UV”. In addition, the “growth characteristics after UV irradiation” value (1.0 mM Phe in growth media, seven d post-irradiation) is reported as “restores growth characteristics regardless of UV wavelength”. The “protection from the effects of high energy UV (lack of seed development, seed death)” value (listed as Phe) was “can overcome the most deleterious effects of high energy UV in soybean”.

The values are drawn from patent publication US8492614B2, “Plant biochemical systems and uses thereof” (The Board of Trustees of the University of Illinois, priority 2007, dated 2013).
